The values below come from ChEMBL document CHEMBL1201862, “PubChem BioAssay data set” (2004).

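1) Cells in 96-well plates. 2) Compound, 48 h, 5 concentrations. 3) Linear interpolation between surrounding doses. 4) Unreached endpoint = highest concentration. At the GI50, growth is halved.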 The source made the active and inactive calls. Rule as the data show it: active = GI50 up to about 1.1 µM and inactive = higher.

What all share (assay): DTP human tumour cell line panel, 48 h
Assay [1] concerns HCT-116.
For assay [2], the system named is MDA-MB-435.
The test system of assay [3] is UACC-257.
The test system of assay [4] is SNB-19.
The test system of assay [5] is ACHN.
Assay [6] relates to SK-MEL-2.
The test system of assay [7] is Malme-3M.
Assay [8] concerns OVCAR-3.
The subject of assay [9] is TK-10.
Assay [10] concerns OVCAR-4.
Assay [11] concerns NCI-H522.
The test system of assay [12] is NCI/ADR-RES.
In assay [13] the test system is PC-3.
For assay [14], the system named is NCI-H23.
Assay [15] concerns CAKI-1.
In assay [16] the test system is MOLT-4.
The test system of assay [17] is A498.
For assay [18], the system named is OVCAR-5.
The subject of assay [19] is RPMI-8226.
Assay [20] has as its system MCF7.

For orientation: GI50 means the concentration that inhibits growth by half.

In the case of `C=C1C2CC3CCC2C(OC(=O)c2ccccc2C(=O)O)C13` (stereo unspecified), the GI50 in assay [1], in [2], in assay [3], in assay [4], in [5] and in [6] was > 100 µM (inactive) throughout. Besides, the GI50 in [7] is > 100 µM (inactive); in [8], 95.9 µM (inactive); in [9] it was > 100 µM (inactive); in assay [10], > 100 µM (inactive); in assay [11], > 100 µM (inactive); in assay [12] it was > 100 µM (inactive). The GI50 in assay [13], in assay [14], in [15], in [16], in assay [17] and in assay [18] was > 100 µM (inactive) throughout.

With `CCSc1nc2sc(C)c(C)c2c(=O)n1-c1ccc(C(=O)O)cc1`, the GI50 in assay [1] is 22.7 µM (inactive); in [3] it was 98.4 µM (inactive); in assay [4], 31.1 µM (inactive); in [19], 34.1 µM (inactive); in [5] it was 79.6 µM (inactive); in [6], > 100 µM (inactive). Besides, the GI50 was > 100 µM (inactive) in assay [7]; 24.8 µM (inactive) in assay [8]; > 100 µM (inactive) in assay [9]; 71.8 µM (inactive) in assay [10]; 23.2 µM (inactive) in assay [11]; 38.3 µM (inactive) in assay [14]. The GI50 in assay [15] was > 100 µM (inactive); in [16] it was 48.5 µM (inactive); in [17], 29.9 µM (inactive); in assay [18], > 100 µM (inactive).

For `COc1c(OC(C)=O)cc2c(OC(C)=O)c1CC(C)CC(OC)C(O)C(C)/C=C(\C)C(OC(N)=O)C(OC)/C=C\C=C(/C)C(=O)N2` (stereo unspecified), the GI50 is > 55.5 µM (inactive) in [1]; > 100 µM (inactive) in assay [3]; > 100 µM (inactive) in [4]; > 54.5 µM (inactive) in [19]; > 100 µM (inactive) in assay [5]; > 100 µM (inactive) in assay [6]. Besides, the GI50 is 98.9 µM (inactive) in [7]; 98.4 µM (inactive) in [8]; > 81.8 µM (inactive) in [9]; > 100 µM (inactive) in [10]; 10.7 µM (inactive) in assay [11]; > 100 µM (inactive) in [14]. For the same compound, the GI50 in [15] is > 100 µM (inactive); in assay [16], > 27 µM (inactive); in [17], > 100 µM (inactive); in assay [18], > 100 µM (inactive).

Regarding `COc1cc([C@@H]2c3cc4c(cc3[C@@H](NCc3ccc(C#N)cc3)C3COC(=O)[C@@H]32)OCO4)cc(OC)c1O` (stereo partly specified), the GI50 in assay [1] is 1.19 µM (inactive); in [3], 4.76 µM (inactive); in assay [4], 0.621 µM (active); in [19], 0.993 µM (active); in [5], 0.272 µM (active); in [6], 3.27 µM (inactive). In addition, the GI50 in assay [7] was 1.01 µM (active); in assay [8], 2.16 µM (inactive); in [9] it was 1.84 µM (inactive); in assay [10], 20.8 µM (inactive); in assay [11], 1.09 µM (active); in assay [14] it was 0.317 µM (active). Moreover, the GI50 in assay [15] was 1.26 µM (inactive); in [16], 0.0512 µM (active); in assay [17] it was 1.07 µM (active); in assay [18], 2.02 µM (inactive).

Turning to `O=C(O)CSC(NC(=O)C(C(F)(F)F)C(F)(F)F)(C(F)(F)F)C(F)(F)F`, the GI50 in assay [1], in assay [2], in assay [3], in assay [4], in [19] and in assay [5] was > 100 µM (inactive) throughout. The GI50 was > 100 µM (inactive) in assay [6]; > 100 µM (inactive) in [9]; > 100 µM (inactive) in [12]; > 100 µM (inactive) in [13]; > 100 µM (inactive) in assay [14]; 1.38 µM (inactive) in [15]. In addition, the values for the GI50 in assay [16], in assay [17] and in assay [18] were > 100 µM (inactive), 71 µM (inactive) and > 100 µM (inactive), respectively.

As for `O=C1C(O)=C(Cl)C(=O)c2c(O)ccc(O)c21`, the GI50 was > 100 µM (inactive) in assay [1]; > 100 µM (inactive) in assay [3]; > 100 µM (inactive) in assay [4]; > 100 µM (inactive) in assay [19]; 20.1 µM (inactive) in assay [7]; > 100 µM (inactive) in assay [8]. For the same compound, the GI50 in assay [9], in [10], in [12], in assay [13], in [14] and in assay [15] was > 100 µM (inactive) throughout. Further, the GI50 was > 100 µM (inactive) in assay [20], 10 µM (inactive) in assay [16], > 100 µM (inactive) in assay [17] and > 100 µM (inactive) in assay [18].

As for `NC(=O)C(=O)CC(=O)c1ccccc1NC1=CC(=O)C(=O)c2ccccc21`, the GI50 in [1] is 53.1 µM (inactive); in [3], 34.7 µM (inactive); in assay [4] it was > 58.2 µM (inactive); in [19], > 40.6 µM (inactive); in assay [5], > 87.9 µM (inactive); in assay [6], 65.8 µM (inactive). Besides, the GI50 in assay [7] is 31.7 µM (inactive); in assay [8], 26.7 µM (inactive); in assay [9] it was > 100 µM (inactive); in assay [10], 19.2 µM (inactive); in assay [11], 30.2 µM (inactive); in assay [14] it was 31.2 µM (inactive). Further, the GI50 is > 100 µM (inactive) in assay [15], > 55 µM (inactive) in [16], > 100 µM (inactive) in [17] and > 100 µM (inactive) in assay [18].

Consider `Cc1cc(C)nc(NC(P(=O)(O)O)P(=O)(O)O)n1`, for which the GI50 in assay [1], in assay [3], in assay [4], in assay [5], in [7] and in assay [8] was > 100 µM (inactive) in each case. Besides, the GI50 in assay [9], in assay [11], in assay [12], in assay [13], in [14] and in [15] was > 100 µM (inactive) in each case. For the same compound, the GI50 in assay [20] and in [18] was > 100 µM (inactive) throughout.

As for `COc1ccc(OC)c(-c2cc(=O)c3c(OC)c(OC)c(OC)c(OC)c3o2)c1`, the GI50 in assay [1] is 27.6 µM (inactive); in assay [2], 28 µM (inactive); in [3], 36.2 µM (inactive); in assay [4] it was 34.4 µM (inactive); in [19], 21.5 µM (inactive); in assay [5] it was 20.7 µM (inactive). The GI50 in assay [6] was 20 µM (inactive); in assay [7] it was 24.3 µM (inactive); in [8], 23 µM (inactive); in assay [9] it was 37.9 µM (inactive); in assay [10] it was 20 µM (inactive); in assay [11], 20 µM (inactive). Moreover, the GI50 in assay [12] was 22.8 µM (inactive); in [14], 30.1 µM (inactive); in assay [15], 40.6 µM (inactive); in [20] it was 14.5 µM (inactive); in [16], 9.44 µM (inactive); in [17], 36.1 µM (inactive). Also, in [18], the GI50 is 49.1 µM (inactive).
